Values of other authors in patent US8324406B2, “Antitumoral dihydropyran-2-one compounds” (priority 2006, dated 2012).
≈ marks a conversion by molar mass, not a printed value.

Tests used:
Saccharomyces cerevisiae = details: fungus Saccharomyces cerevisiae; cited from earlier work
[1] = tested on: L929 mouse fibroblast cell culture; details: cited from earlier work

COC(=O)CNC(=O)CCC/C=C\NC(=O)/C=C(C)/C=C/[C@H](C)[C@H](OC)[C@H](C)[C@H](/C=C/c1ccccc1)OC [crocacin D]
MIC (Saccharomyces cerevisiae): 1.4 ng/mL (≈ 0.00259 µM) | IC50 (toxicity) [1]: 0.06 mg/L (≈ 0.111 µM)
